PubChem BioAssay (NCI)
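How tested: cells in 96-well plates exposed to compound for 48 hours at five concentrations. The concentration for 50% growth inhibition is given as GI50. Definition used: TGI = concentration required for complete inhibition of growth.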

How the values were obtained:
Test in all cases: NCI anticancer screen, dose series, 48 h
BT-549 breast = system: BT-549 breast
786-0 renal = system: 786-0 renal
HOP-92 NSCLC = system: HOP-92 NSCLC
HCC-2998 colon = system: HCC-2998 colon
A498 renal = system: A498 renal
MDA-N = system: MDA-N
PC-3 prostate = system: PC-3 prostate
MDA-MB-231 breast = system: MDA-MB-231 breast
T-47D breast = system: T-47D breast
DMS 114 small cell lung = system: DMS 114 small cell lung
M19-MEL melanoma = system: M19-MEL melanoma
DMS 273 small cell lung = system: DMS 273 small cell lung
DLD-1 colon = system: DLD-1 colon

Row | SMILES | TGI (BT-549 breast) [µM] | TGI (786-0 renal) [µM] | TGI (HOP-92 NSCLC) [µM] | TGI (HCC-2998 colon) [µM] | TGI (A498 renal) [µM] | TGI (MDA-N) [µM] | TGI (PC-3 prostate) [µM] | TGI (MDA-MB-231 breast) [µM] | TGI (T-47D breast) [µM] | GI50 (BT-549 breast) [µM] | GI50 (T-47D breast) [µM] | GI50 (HOP-92 NSCLC) [µM] | GI50 (HCC-2998 colon) [µM] | GI50 (A498 renal) [µM] | GI50 (MDA-MB-231 breast) [µM] | TGI (DMS 114 small cell lung) [µM] | TGI (M19-MEL melanoma) [µM] | TGI (DMS 273 small cell lung) [µM] | TGI (DLD-1 colon) [µM] | GI50 (PC-3 prostate) [µM]
1 | CC(C)(O)CO/N=C1\C(c2c(O)[nH]c3ccccc23)=Nc2ccccc21 | 28.6 | > 44.4 | > 91.6 | 3.27 | 3.63 | > 45 | 12.4 | > 75.7 |  |  |  |  |  |  |  |  |  |  |  | 
2 | c1ccc(CCN2CCOCC2)nc1 | > 100 | > 100 | > 100 | > 100 | > 100 | > 100 | > 100 | > 100 | > 100 |  |  |  |  |  |  |  |  |  |  | 
3 | c1ccc2sc(C3(N4CCC5(CC4)OCCO5)CCCCC3)cc2c1 | > 100 | > 100 | > 100 | 90.9 | > 100 | > 100 |  |  | > 100 |  |  |  |  |  |  |  |  |  |  | 
4 | NC(=O)Nc1ccc(C(=O)NCCCNC(=O)c2ccc(NC(N)=O)cc2)cc1 | > 100 |  | > 100 | > 100 | > 100 | > 100 | > 100 |  | > 100 |  |  |  |  |  |  |  |  |  |  | 
5 | CCCC1=C(C(=O)OCC)C(c2ccccc2OC)C(C#N)=C(N)O1 (stereo unspecified) | > 100 |  | > 100 | > 100 | > 100 |  |  | 57.6 | > 100 | 62.9 | 43.4 | 37.7 | 77.3 | 62.2 | 22.4 |  |  |  |  | 
6 | COc1ccccc1/C=C/c1c(N)ncnc1Nc1cccc(Cl)c1 | 35.7 | 26.6 | 0.588 | > 100 | 30.9 | 55.8 | 0.97 | 42.5 | > 100 |  |  |  |  |  |  |  |  |  |  | 
7 | CN=C(N)/N=C(\N)Nc1cc2ccccc2c2ccccc12 | 29.3 | 25.5 | 40.8 | 6.78 | 23.3 | 27.8 | 29.5 | 26.2 | 40.5 |  |  |  |  |  |  |  |  |  |  | 
8 | O=C1/C(=C/c2ccc(Cl)cc2)N=C(c2ccccc2)N1c1nc2c(Cl)cc(Cl)cc2s1 | 82.9 | > 100 | 71.6 | > 100 | 50.2 | 39.2 | 45.9 | 92.3 | 70.2 |  |  |  |  |  |  |  |  |  |  | 
9 | COc1c(O)c(O)c2c(c1O)C(=O)c1cc(C)cc(O)c1C2=O | > 100 | > 100 | > 100 | > 100 | > 100 | > 100 | > 100 | 42 | > 100 |  |  |  |  |  |  |  |  |  |  | 
10 | CCOC(=O)C(=O)Nc1c(CC)cccc1C(C)CC (stereo unspecified) |  |  | > 100 | > 100 | > 100 |  |  |  |  |  |  |  |  |  |  | > 100 | > 100 | > 100 | > 100 | 
11 | Nc1cccc2c1C1=NNC(=O)CC1C2 (stereo unspecified) |  |  | 4.46 | > 100 | > 100 |  |  |  |  |  |  |  |  |  |  | > 100 | > 100 | > 100 | > 100 | 
12 | O=C1C(c2c(O)[nH]c3ccccc23)=Nc2ccc(Br)cc21 | 77.2 | 28.8 | 50.4 | > 100 | 21 | > 100 | 49.7 | 77 | > 100 |  |  |  |  |  |  |  |  |  |  | 
13 | Cc1c(NC(=O)c2cc([N+](=O)[O-])cc([N+](=O)[O-])c2)c(=O)n(-c2ccccc2)n1C | > 100 | > 100 | > 100 |  | > 100 | > 100 | > 100 | > 100 |  |  |  |  |  |  |  |  |  |  |  | 
14 | C[C@H](N[C@H]1CCC[C@]1(O)C#Cc1ccc2c(c1)OCO2)c1ccccc1 |  |  | > 25 | > 25 | > 25 |  | > 25 | > 25 | > 25 |  |  |  |  |  |  |  |  |  |  | 
15 | Cc1ccc2ccc3ccc(C)nc3c2n1 | > 100 | > 100 | > 100 | > 100 | > 100 | > 100 | > 100 | > 100 | > 100 |  |  |  |  |  |  | 1.34 | > 100 | > 100 | > 100 | 
16 | O=C1C(=c2cc3c(c4ccccc24)=NC24CCCCC2C(c2ccccc2)C=C(c2ccccc2)N34)C(=O)c2ccccc21 (stereo unspecified) |  | > 100 | > 100 |  | > 100 | > 100 | > 100 | > 100 | > 100 |  |  |  |  |  |  |  |  |  |  | 
17 | O=C(Nc1sccc1S(=O)(=O)c1ccc(Cl)cc1)c1ccccc1 | > 100 | > 100 | > 100 |  | > 100 | > 100 | > 100 | > 100 | > 100 |  |  |  |  |  |  |  |  |  |  | 
18 | C/C=C1/CN2CCC34c5ccccc5N(C)C23C2CC1C4(C(=O)OC)C(O)O2 (stereo unspecified) | > 100 | > 100 | > 100 | > 100 | > 100 | > 100 | > 100 | > 100 | > 100 |  |  |  |  |  |  |  |  |  |  | 
19 | Cc1c2cc[n+](C)cc2c(C)c2c1[nH]c1ccc(Cl)cc12 | 4.16 | 5.76 | 26.5 | 13.8 | 1.4 | > 59.3 | > 43.2 | > 47.5 | 14.8 |  |  |  |  |  |  | 2.78 | 3.94 | 35.7 | > 100 | 
20 | CSc1ccc(-c2cc(-c3nc4ccccc4[nH]3)nc(N)c2C#N)cc1 | 59.6 | > 100 | 42.9 | 33.1 | 50 | 66.1 | 98.7 | 36.1 | 54.7 |  |  |  |  |  |  |  |  |  |  | 
21 | C=Cc1cc(OC)c2c(c1)c(=O)oc1c2cc(OC)c2c(O)ccc(C3OC(C)C(O)C(C)(O)C3O)c21 (stereo unspecified) | 0.00758 |  | 0.24 |  |  | 0.00425 | 0.00405 |  | 0.00439 |  |  | 0.000215 | 0.00253 | 0.00121 |  | 0.0393 | 0.16 | 0.139 | 1.07 | 
22 | C[C@@H](CO)C1=CC(C#C[Si](C)(C)C)N(C(=O)Oc2ccccc2)c2ccccc21 (stereo partly specified) |  | 31.8 | 24.6 | 29.9 |  | 23.7 | 64.1 | 37.8 | 51.1 |  |  |  |  |  |  |  |  |  |  | 
23 | Cc1ccc([N+](=O)[O-])cc1S(=O)(=O)Nc1ccc(C2=NN(C(=O)c3ccccc3)C(c3cccs3)C2)cc1 (stereo unspecified) | > 100 | 45.2 | 55.3 |  | 50.8 | 77.4 | > 100 | 44 | 84.2 |  |  |  |  |  |  |  |  |  |  | 
24 | CNS(=O)(=O)c1ccc2[nH]c(O)c(C3=Nc4ccccc4C3=O)c2c1 | > 100 |  |  | > 100 | > 100 | > 100 | > 100 | > 100 | > 100 |  |  |  |  |  |  |  |  |  |  | 
25 | N#CCCOCN(CO)c1nc(N(CO)COCCC#N)nc(N(CO)COCCC#N)n1 |  |  | 45.8 |  | > 100 |  |  |  |  |  |  |  |  |  |  | 52.4 | 50 | 32.8 | 75.9 | 
26 | COc1cc(NC(=O)CSc2nc3ccccc3c(=O)n2CCc2ccccc2)cc(OC)c1OC | 9.47 |  | 3.44 |  |  |  |  | 3.71 |  | 3.22 |  | 0.587 |  |  | 1.47 |  |  |  |  | 
27 | O=C(NCCNc1nccc(-c2c(-c3cccc(O)c3)nc3sccn23)n1)Nc1cccc(C(F)(F)F)c1 |  |  | 9.38 | 5.77 | 32.6 |  | 12.6 | 12.3 | 25.6 |  | 6.52 | 2.19 | 2.68 | 7.33 | 3.52 |  |  |  |  | 2.94
28 | CC(=O)OC[C@@]1(C)[C@@H]2[C@@H]3[C@@]4(CO[C@]3(C)C(=O)[C@@]3(O)C[C@H](C)[C@H](OC(C)=O)[C@@H]3[C@H]4OC(C)=O)[C@H](OC(=O)c3ccccc3)C[C@@H]21 | > 100 | > 100 | > 100 | > 100 | > 100 | > 100 | > 100 | > 100 | > 100 |  |  |  |  |  |  |  |  |  |  | 
